Entries after “also recorded” stand apart in the source; their conditions may differ. Read-outs that look alike come from different tables or passages of the source.
Assays:
[1] = test system: GBM cells; test: Model tumor spheroid assay: GBM cell invasion in three-dimensional Matrigel matrix; assay type: cell-based, human; conditions: 3D Matrigel matrix; for invasive cells in multicellular spheroids: 50 μM
Excerpt: FIG. 5 depicts the Human glioblastoma multiforme (GBM) cell invasion in a three-dimensional Matrigel basement membrane. Model Tumor Spheroid assay: GBM cells form a spheroid tumor-like biological entity in three-dimensional space. Proliferation and invasion of GBM in 3-dimensional Matrigel matrix in 5 days (A) and 12 days (B). Arrows indicate invasive cells in model tumor spheroids. The proliferation and invasion of GBM in a three-dimensional Matrigel matrix have been studied for days. […] Arrows indicate invasive cells.
GBM cells were incubated in a previously prepared 3-dimensional Matrigel matrix. Multicellular spheroids were formed after three days of incubation. The mechanical properties of cell invasion of patient-derived primary glioblastoma cells have been studied recently in 3-D matrigel matric (Grundy et al., 2016). Cellular invasiveness was monitored in multicellular spheroids of GBM embedded in 3D matrigel matric (FIG. 5).

[2] = test system: human normal primary skin fibroblasts; test: Toxicity to cultured normal primary skin fibroblasts; assay type: cell-based
Procedure: FIG. 8 depicts the non-toxicity of Compound 1.
Insignificant toxicity was found for the quinazoline derivative (Compound 1): One quinazoline derivative (Compound 1) was non-toxic to cultured normal primary skin fibroblasts isolated from healthy individuals (FIG. 8). After three days of continuous treatment by 100 μM Compound 1, there was no cell death.
(§1) GBM cell line T98-G (ATCC-CRL-1690) was obtained and authenticated by the American Type Culture Collection (Cat #30-2003; ATCC, Manassas, VA). Cells were cultured and maintained in low glucose Dulbecco's Modified Eagle Medium (DMEM) (Thermo Fisher Scientific) supplemented with 10% fetal bovine serum (FBS, Thermo Fisher Scientific) at 37° C. in a 5% CO2 humidified atmosphere and passed in less than 6 months. Human neuroblastoma cells. Human SH-SY5Y neuroblastoma cells (Sigma-Aldrich) were cultured in 45% F12K, 45% Modified Eagle Medium (MEM), supplemented with 10% FBS in tissue culture incubator (37° C., 5% CO2, 90% humidity). Primary skin fibroblasts. […] The condition of the cultured cells was monitored with an inverted cell culture microscope (Westover Digital AMID Model 2000, Westover Scientific, Bothell, WA), controlled by a computer, and images were captured with image acquisition software (Micron 2.0.0, Westover Scientific).

[3] = target: T1, PKCε (Homo sapiens, UniProt Q02156); test: PKCε activity (membrane/cytosol ratio) in neuroblastoma cells; assay type: cell-based; conditions: SHSY5Y cells
T1 construct: host or cells: SH-SY5Y human neuroblastoma cells
T1 sequence (Q02156 1-737): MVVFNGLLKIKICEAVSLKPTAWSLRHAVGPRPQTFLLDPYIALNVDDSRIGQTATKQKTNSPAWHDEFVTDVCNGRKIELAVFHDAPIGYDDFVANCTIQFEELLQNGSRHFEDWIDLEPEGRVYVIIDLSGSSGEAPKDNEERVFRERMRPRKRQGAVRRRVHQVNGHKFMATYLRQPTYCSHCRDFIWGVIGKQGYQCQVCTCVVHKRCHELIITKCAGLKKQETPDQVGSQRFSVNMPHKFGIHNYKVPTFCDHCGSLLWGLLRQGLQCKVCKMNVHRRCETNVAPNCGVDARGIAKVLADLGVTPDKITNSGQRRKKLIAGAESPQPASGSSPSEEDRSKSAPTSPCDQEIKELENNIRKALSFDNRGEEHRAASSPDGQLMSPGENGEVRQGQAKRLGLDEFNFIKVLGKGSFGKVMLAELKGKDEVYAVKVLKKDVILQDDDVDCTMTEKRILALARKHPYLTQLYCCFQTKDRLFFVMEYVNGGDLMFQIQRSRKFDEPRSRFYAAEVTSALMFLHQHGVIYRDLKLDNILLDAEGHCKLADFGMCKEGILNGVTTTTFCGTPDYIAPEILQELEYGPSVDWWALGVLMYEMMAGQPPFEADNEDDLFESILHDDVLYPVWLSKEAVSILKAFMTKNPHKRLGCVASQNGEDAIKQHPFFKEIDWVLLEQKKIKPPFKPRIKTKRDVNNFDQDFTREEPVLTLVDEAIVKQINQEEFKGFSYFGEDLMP
Procedure: FIG. 7 depicts how novel quinazoline derivative decreases oncogenic PKCε activity in neuroblastoma cells. C=concentration of PKCε in cytosol fraction, and M=concentration of PKCε in membrane fraction of cells. PKCε activity was measured as the ratio of the concentration in the membrane and cytosol fraction.
Novel quinazoline derivative decreases oncogenic PKCepsilon (PKCε) activity in neuroblastoma cells (FIG. 7). We tested whether novel quinazoline derivatives can decrease oncogenic PKCε activity. […] Oncogenic PKCε is a survival kinase for GBM cells (Okhrimentko et al., 2005).
as §1, with “cells.” for “cells. Human SH-SY5Y neuroblastoma cells (Sigma-Aldrich) were cultured in 45% F12K, 45% Modified Eagle Medium (MEM), supplemented with 10% FBS in tissue culture incubator (37° C., 5% CO2, 90% humidity). Primary skin fibroblasts.”, “Scientific). […]” for “Scientific).”

[4] = test system: Glioblastoma multiforme (GBM) cells (T98-G); test: Induction of apoptosis in cultured glioblastoma multiforme cells (microscopy); assay type: cell-based, human; conditions: for induction of apoptosis in GBM cells: T98-G cells, 50 and 100 μM, three days, compared to vehicle control
Procedure: FIG. 2 depicts a novel quinazoline derivative (Compound 1:6-Pyridin-2-yl -5,6-dihydro-benzo[4,5]imidazo[1,2-c]quinazoline) that induces apoptosis in Glioblastoma (GBM) cells. Cells were treated with different concentrations of Compound 1 (0.1, 1, 10, 50, 100μ) or vehicle (control).
(§2) Glioblastoma multiforme (GBM) cells (T98-G) were cultured in 6 wells for ˜90% confluent. Cells were treated with different concentrations of Compound 1 (0.1, 1, 10, 50, 100μ) or vehicle (control). […] Cell viability was tested by trypan blue exclusion assay.
GBM cell line T98-G (ATCC-CRL-1690) was obtained and authenticated by the American Type Culture Collection (Cat #30-2003; ATCC, Manassas, VA). Cells were cultured and maintained in low glucose Dulbecco's Modified Eagle Medium (DMEM) (Thermo Fisher Scientific) supplemented with 10% fetal bovine serum (FBS, Thermo Fisher Scientific) at 37° C. in a 5% CO2 humidified atmosphere and passed in less than 6 months. Human neuroblastoma cells. Human SH-SY5Y neuroblastoma cells (Sigma-Aldrich) were cultured in 45% F12K, 45% Modified Eagle Medium (MEM), supplemented with 10% FBS in tissue culture incubator (37° C., 5% CO2, 90% humidity). Primary skin fibroblasts. Primary skin fibroblasts were obtained from the Coriell Institute for Medical Research (Camden, NJ; Cat #AG09555; the Aging Cell Culture Repository of the National Institute on Aging) and maintained in DMEM with low glucose (Invitrogen, Grand Island, NY) supplemented with 10% FBS in 6-well culture plates (37° C., 5% CO2, 90% humidity) until reaching 90-100% confluence. In addition, cells were treated with either vehicle, 50, and 100 μM quinazoline derivatives and propentofylline. The condition of the cultured cells was monitored with an inverted cell culture microscope (Westover Digital AMID Model 2000, Westover Scientific, Bothell, WA), controlled by a computer, and images were captured with image acquisition software (Micron 2.0.0, Westover Scientific).

[5] = test system: Glioblastoma multiforme (GBM) cells (T98-G); test: Cell viability by trypan blue exclusion assay; assay type: cell-based, human; conditions: 50 and 100 μM, 3 days
Procedure: FIG. 3 depicts concentration dependence cell viability of human glioblastoma multiforme (GBM) cells by novel quinazoline derivative (Compound 1: 6-Pyridin-2-yl-5,6-dihydro-benzo[4,5]imidazo[1,2-c]quinazoline).
as §2, §1

[6] = test system: integrin β1 (CD29); test: Western blot of integrin β1 levels in GBM cells; assay type: cell-based, human; conditions: normalized with β-tubulin, similar concentrations
Excerpt: FIG. 6 depicts a novel quinazoline derivative (Compound 1:-Pyridin-2-yl -5,6-dihydro-benzo[4,5]imidazo[1,2-c]quinazoline) that decreases glioblastoma cell invasion by decreasing integrin β1 (CD29) levels. Intergrin β1 band decreased in Western blot analyses both in normal culture (A), and serum-free condition (B) by the treatment of compound 1. Propentofylline treatment produces reverse effects (A). Relative expression levels of integrin β1 is normalized with β-tubulin as a loading control in Western blot analyses. […] Standard Error of Mean (SEM) is calculated from three independent measurements.
Integrins have an important role to play in cell invasion in tumorigenic environments. […] We also compared the effectiveness of reducing β1 integrin level with propentofylline in the same concentration. […] Deletion of β1 integrin reduced tumorigenesis in in-vivo xenograft tumor growth animal model (Hou et al., 2016).
Reagents and antibodies: Propentofylline (molecular weight 306.366; [1-(5O-oxohexyl)-3-methyl-7-propylxanthine) was purchased from Sigma-Aldrich (St. Louis). Propentofylline and synthetic quinazoline derivatives were dissolved in DMSO (30-60 mM, depending on solubility). Aliquots were stored at −20 C. Stock solutions were dissolved in a culture medium at different concentrations just before each experiment. Rabbit monoclonal anti-Integrin beta 1 [CD29] antibody (Cat #04-1109) was purchased from Millipore (Temecula, CA). Anti-tubulin III antibody (Cat #79-720) was purchased from ProSci (Poway, CA). Antibody for PKCε (C-15) (Santa Cruz Biotechnology, Santa Cruz, CA; Cat No: sc-214) was used to detect PKCε and has been recommended for detection of PKCε of human origin by western blotting and immunofluorescence analysis by the manufacturer. Quinazoline derivatives were synthesized in the laboratory.

[7] = test system: GBM cells; conditions: 2012, cited from earlier work; for GBM cell invasion and survival: Dhruv et al., 2016, Jacob et al.
[8] = test system: Glioblastoma multiforme (GBM); conditions: cited from earlier work

For `c1ccc(C2Nc3ccccc3-c3nc4ccccc4n32)nc1` (centres unmarked) [Compound 1, 6-Pyridin-2-yl-5,6-dihydro-benzo[4,5]imidazo[1,2-c]quinazoline], the “invasive cells in multicellular spheroids” value [1] was “no invasive cells”, the “potency for reducing tumor size and cell invasion compared with Propentofylline” value ([1]; 5th day) was “more potent than Propentofylline in terms of reducing tumor size and cell invasion; also recorded: more potent inhibitor of GBM cell invasion” and the “cell death of primary skin fibroblasts” value ([2]; 100 μM, three days of continuous treatment) was “no noticeable cell death”. For the same compound, the “toxicity to primary human skin fibroblasts” value ([2]; cultured normal primary skin fibroblasts from healthy individuals) was “non-toxic”, the “PKCε activity (ratio of concentration in membrane and cytosol fraction)” value [3] was “significantly decreased the PKCε activity” and the “potency for inducing apoptosis / inhibiting GBM survival compared with Propentofylline” value ([4]; GBM cells, FIG. 4) was “more potent for inhibiting GBM survival than Propentofylline; also recorded: more potent than Propentofylline to induce apoptosis”. The “induction of apoptosis in GBM cells” value [4] was “induced significant apoptosis; also recorded: induce apoptosis; also recorded: caused significant apoptosis”, the “cell viability (trypan blue exclusion)” value [5] was “Cell viability was reduced” and the “integrin β1 expression level” value [6] was “significantly decreases integrin β1 expression level; also recorded: decreasing β1 integrin (CD29) levels; also recorded: significantly reduced expression levels of β1-Integrin”.
With `c1c[nH]c(-c2nc3ccccc3c3nc4ccccc4n23)c1` [Compound 7, 6-(1H-Pyrrol-2-yl)-benzo[4,5]imidazo[1,2-c]quinazoline] the “induction of apoptosis in GBM cells” value [4] was “caused significant apoptosis”.
For `CCCn1cnc2c1c(=O)n(CCCCC(C)=O)c(=O)n2C` [Propentofylline, 1-(5O-oxohexyl)-3-methyl-7-propylxanthine], the “invasive cells in multicellular spheroids” value [1] is given as “Invasive cells were sprouting outside of the spheroid”, the “induction of apoptosis in GBM cells” value [4] is given as “did not induce apoptosis” and the “GBM cell invasion and survival” value [7] is given as “decreasing GBM cell invasion and survival”. For the same compound, the “GBM cell invasion and survival” value ([7]; listed as propentofylline) was “decreased GBM cell invasion; also recorded: inhibits GBM survival”, the “induction of apoptosis in GBM cells” value ([7]; Jacobs et al.) was “ineffective inducing apoptosis” and the “integrin β1 expression level” value [6] was “not able to reduce β1 integrin level”. For the same compound, the “integrin β1 expression level” value ([6]; listed as propentofylline) was “significantly increases integrin β1 expression levels; also recorded: increased expression levels of β1-Integrin”.
For `Cn1nnc2c(C(N)=O)ncn2c1=O` [TMZ, temozolomide], the common side effects ([8]; patients) is given as “bone marrow suppression, genotoxic, and teratogenic”.
In the case of “Bevacizumab: FDA-approved immunotherapeutic agent; therapeutic antibody (Genentech)”, the “progression-free survival at 6 months” value ([8]; GBM patients, % of cases) is given as 36%, the overall survival ([8]; GBM patients) is given as 9.3 months and the gastrointestinal perforation ([8]; human, in vivo) is given as 1.5-5.4%. The hypertension ([8]; human, in vivo) was 5.5-11.4%, the proteinuria ([8]; human, in vivo) was 2.7-11.4% and the thromboembolic events ([8]; human, in vivo) was 3.2-11.9%. For the same compound, the wound healing complications ([8]; human, in vivo) was 0.8-3.3% and the “patients who developed therapeutic resistance” value ([8]; phase II clinical trial (Vredenburgh et al., 2007)) was 40%.

From patent US20250177400A1, “METHODS OF THERAPEUTICS DEVELOPMENT OF GLIOBLASTOMA MULTIFORME BY QUINAZOLINE DERIVATIVES AND THEREOF” (priority 2023, published 2025)
